Here are results for 30 compounds from US9409884B2 (Rigel Pharmaceuticals, Inc., priority 2012, dated 2016).

SMILES strings stand for the structures. pEC50: −log10 of the molar value.

One assay has as its target AMPK. The assay is described as follows: AMPK activation, enzyme-linked immunosorbent assay. Format: biochemical. Conditions: Table 8, compounds of Table 1. A digest of the protocol:
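AMPK activation by test compounds was measured by enzyme-linked immunosorbent assay.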
Regarding `O=C(NC1CCN(Cc2ccc(C(F)(F)F)cc2)CC1)c1cc2cc(OC3CCN(c4ccc(C(F)(F)F)cc4)CC3)ccc2o1` [Compound 1-100, N-(1-(4-(trifluoromethyl)benzyl)piperidin-4-yl)-5-(1-(4-(trifluoromethyl)phenyl)piperidin-4-yloxy)benzofuran-2-carboxamide], the pEC50 is more than 7.00.
On the same count and under the same terms, in the case of `O=C(NC1CCN(Cc2ccccn2)CC1)c1sc2cc(OC3CCN(c4ccc(C(F)(F)F)cc4)CC3)ccc2c1Cl` [Compound 1-153, 3-chloro-N-(1-(pyridin-2-ylmethyl)piperidin-4-yl)-6-(1-(4-(trifluoromethyl)phenyl)piperidin-4-yloxy)benzo[b] thiophene-2-carboxamide] it was 6.30 to 7.00; in that of `N#Cc1ccc(N2CCC(Oc3ccc(S(=O)(=O)NC4CCN(Cc5ccncc5)CC4)cn3)CC2)cc1` [Compound 1-52, N-(1-(pyridin-4-ylmethyl)piperidin-4-yl)-6-(1-(4-cyanophenyl)piperidin-4-yloxy)pyridine-3-sulfonamide], 6.30 to 7.00.
The same measure, in the same setting: in the case of `Cc1c(C(=O)NC2CCN(Cc3ccc(F)cc3)CC2)oc2cc(OC3CCN(c4ccc(C(F)(F)F)cc4)CC3)ccc12` [Compound 1-63, N-(1-(4-fluorobenzyl)piperidin-4-yl)-3-methyl-6-(1-(4-(trifluoromethyl)phenyl)piperidin-4-yloxy)benzofuran-2-carboxamide] it was more than 7.00.

Still in this assay, the particulars now being: Table 9, compounds of Table 2.
Regarding `O=C(NC1CCN(S(=O)(=O)c2ccc(F)cc2)CC1)c1ccc2[nH]c3c(c2c1)CN(Cc1ccc(C(F)(F)F)cc1)CC3` [Compound 2-28, N-(1-(4-fluorophenylsulfonyl)piperidin-4-yl)-2-(4-(trifluoromethyl)benzyl)-2,3,4,5-tetrahydro-1H-pyrido[4,3-b]indole-8-carboxamide], the pEC50 is 5.30 to 6.00.

The same assay, now with this note: Table 10, compounds of Table 3.
On to `O=C(NC1CCN(Cc2ccncc2)CC1)c1cn2ccc(OC3CCN(c4ccc(C(F)(F)F)cc4)CC3)cc2n1` [Compound 3-17, N-(1-(pyridin-4-ylmethyl)piperidin-4-yl)-7-(1-(4-(trifluoromethyl)phenyl)piperidin-4-yloxy)imidazo[1,2-a]pyridine-2-carboxamide], for which the pEC50 was more than 7.00.
Still for that read-out and setting: in the case of `N#Cc1ccc(CN2CCC(NC(=O)c3cnc(OC4CCN(c5ccc(C#N)cc5)CC4)s3)CC2)cc1` [Compound 3-24, N-(1-(4-cyanobenzyl)piperidin-4-yl)-2-(1-(4-cyanophenyl)piperidin-4-yloxy)thiazole-5-carboxamide] it was more than 7.00.

Staying with this assay, now noted: Table 11, compounds of Table 4.
On to `N#Cc1ccc(CN2CCC(NC(=O)c3ccc(C(=O)N4CCN(Cc5ccc(F)cc5)CC4)cn3)CC2)cc1` [Compound 4-2, N-(1-(4-cyanobenzyl)piperidin-4-yl)-5-(4-(4-fluorobenzyl)piperazine-1-carbonyl)picolinamide], for which the pEC50 is more than 6.30.
For the compound `N#Cc1ccc(CN2CCC(NC(=O)c3ccc(C(=O)N4CCN(c5ccc(S(=O)(=O)N6CCCC6)cc5)CC4)nc3)CC2)cc1` [Compound 4-9, N-(1-(4-cyanobenzyl)piperidin-4-yl)-6-(4-(4-(pyrrolidin-1-ylsulfonyl)phenyl)piperazine-1-carbonyl)nicotinamide], the negative-log EC50 (pEC50) is 6.00 to 6.30.
On the same count and under the same terms, in the case of `N#Cc1ccc(CN2CCC(NC(=O)c3ccc(C(=O)N4CCN(c5ccc(C(=O)C6CC6)cc5)CC4)nc3)[C@H](F)C2)cc1` (stereo partly drawn) [Compound 4-12, N-((3,4-trans)-1-(4-cyanobenzyl)-3-fluoropiperidin-4-yl)-6-(4-(4-(cyclopropanecarbonyl)phenyl)piperazine-1-carbonyl)nicotinamide] it was more than 6.30.

Staying with this assay, now noted: Table 12, compounds of Table 5.
`N#Cc1ccc(N2CCC(Oc3cccc(C(=O)NC4CCN(Cc5ccncc5)CC4)c3)CC2)cc1` [Compound 5-88, N-(1-(pyridin-4-ylmethyl)piperidin-4-yl)-3-(1-(4-cyanophenyl)piperidin-4-yloxy)benzamide] had a pEC50 of 5.00 to 6.00.
Consider `N#Cc1ccc(CN2CCC(NC(=O)c3cccc(OC4CCN(Cc5ccc(C#N)cc5)CC4)c3)CC2)cc1` [Compound 5-124, N-(1-(4-cyanobenzyl)piperidin-4-yl)-3-(1-(4-cyanobenzyl)piperidin-4-yloxy)benzamide], for which the pEC50 was more than 6.00.
As for `COc1ccc(CN2CCC(NC(=O)c3cccc(OC4CCN(Cc5ccc(C(F)(F)F)cc5)CC4)c3)CC2)cc1` [Compound 5-108, N-(1-(4-methoxybenzyl)piperidin-4-yl)-3-(1-(4-(trifluoromethyl)benzyl)piperidin-4-yloxy)benzamide], the negative-log EC50 (pEC50) was more than 6.00.
For `O=C(NC1CCN(Cc2ccccc2)CC1)c1ccc(OC2CCN(Cc3cccc(C(F)(F)F)c3)CC2)c(Cl)c1` [Compound 5-60, N-(1-benzylpiperidin-4-yl)-3-chloro-4-(1-(3-(trifluoromethyl)benzyl)piperidin-4-yloxy)benzamide], the pEC50 was more than 6.00.
For the compound `N#Cc1ccc(CN2CCC(NC(=O)c3cccc(OC4CCN(Cc5ccc(OC(F)(F)F)cc5)CC4)c3)CC2)cc1` [Compound 5-123, N-(1-(4-cyanobenzyl)piperidin-4-yl)-3-(1-(4-(trifluoromethoxy)benzyl)piperidin-4-yloxy)benzamide], the pEC50 is less than 4.00.
The same measure, in the same setting: in the case of `O=C(NC1CCN(Cc2ccccc2)CC1)c1ccc(OC2CCN(Cc3ccc(Cl)cc3)CC2)c(F)c1` [Compound 5-64, N-(1-benzylpiperidin-4-yl)-4-(1-(4-chlorobenzyl)piperidin-4-yloxy)-3-fluorobenzamide] it was more than 6.00.
Consider `CC(C)(C)OC(=O)N1CCC(NC(=O)c2ccc(OC3CCN(Cc4ccc(C#N)cc4)CC3)cc2)CC1` [Compound 5-78, tert-butyl 4-(4-(1-(4-cyanobenzyl)piperidin-4-yloxy)benzamido)piperidine-1-carboxylate], for which the pEC50 was more than 6.00.
`O=C(NC1CCN(Cc2ccccn2)CC1)c1ccc(OC2CCN(c3ccc(C(F)(F)F)cc3)CC2)c(F)c1` [Compound 5-32, 3-fluoro-N-(1-(pyridin-2-ylmethyl)piperidin-4-yl)-4-(1-(4-(trifluoromethyl)phenyl)piperidin-4-yloxy)benzamide] had a pEC50 of more than 6.00.
Still for that read-out and setting: in the case of `O=C(NC1CCN(Cc2ccccc2)CC1)c1ccc(OC2CCN(Cc3cccnc3)CC2)c(F)c1` [Compound 5-38, N-(1-benzylpiperidin-4-yl)-3-fluoro-4-(1-(pyridin-3-ylmethyl)piperidin-4-yloxy)benzamide] it was 5.00 to 6.00.

Still in this assay, the particulars now being: Table 13, compounds of Table 6.
Compound `CS(=O)(=O)c1ccc(CN2CCN(C(=O)c3ccc4oc(C(=O)NC5CCN(Cc6ccc(OC(F)F)cc6)CC5)cc4c3)CC2)cc1` [Compound 6-101, N-(1-(4-(difluoromethoxy)benzyl)piperidin-4-yl)-5-(4-(4-(methylsulfonyl)benzyl)piperazine-1-carbonyl) benzofuran-2-carboxamide] had a pEC50 of 6.00 to 7.00.
`COc1ccc(CN2CCC(NC(=O)c3cc4cc(C(=O)N5CCN(Cc6ccc(S(=O)(=O)N7CCCC7)cc6)CC5)ccc4o3)CC2)cc1F` [Compound 6-160, N-(1-(3-fluoro-4-methoxybenzyl)piperidin-4-yl)-5-(4-(4-(pyrrolidin-1-ylsulfonyl)benzyl)piperazine-1-carbonyl)benzofuran-2 - carboxamide] showed a pEC50 of more than 7.00.
With `N#Cc1ccc(CN2CCC(NC(=O)c3cc4cc(NC(=O)C5CCN(Cc6ccc(C(F)(F)F)cc6)CC5)ccc4o3)CC2)cc1` [Compound 6-50, N-(2-(1-(4-cyanobenzyl)piperidin-4-ylcarbamoyl)benzofuran-5-yl)-1-(4-(trifluoromethyl)benzyl) piperidine-4-carboxamide], the pEC50 is 6.00 to 7.00.
For the compound `Cc1cc(C(=O)Nc2ccc3oc(C(=O)NC4CCN(Cc5ccc(C#N)cc5)CC4)cc3c2)no1` [Compound 6-61, N-(2-(1-(4-cyanobenzyl)piperidin-4-ylcarbamoyl)benzofuran-5-yl)-5-methylisoxazole-3-carboxamide], the negative logarithm of the EC50 (pEC50) was 6.00 to 7.00.
For `COc1ccc(CN2CCC(NC(=O)c3cc4cc(C(=O)N5CCN(Cc6ccc(C(F)(F)F)cc6)CC5)ccc4o3)CC2)cc1F` [Compound 6-129, N-(1-(3-fluoro-4-methoxybenzyl)piperidin-4-yl)-5-(4-(4-(trifluoromethyl)benzyl)piperazine-1-carbonyl) benzofuran-2-carboxamide], the pEC50 is more than 7.00.
As to `COc1ccc(-c2cnn(C3CCN(C(=O)c4ccc5oc(C(=O)NC6CCN(Cc7ccc(C#N)cc7)CC6)cc5c4)CC3)c2)cc1` [Compound 6-125, N-(1-(4-cyanobenzyl)piperidin-4-yl)-5-(4-(4-(4-methoxyphenyl)-1H-pyrazol-1-yl)piperidine-1-carbonyl)benzofuran-2-carboxamide], the negative logarithm of the EC50 (pEC50) is more than 7.00.
`N#Cc1ccc(CN2CCC(NC(=O)c3cc4cc(NC(=O)c5cnn(-c6ccc(F)cc6)c5)ccc4o3)CC2)cc1` [Compound 6-66, N-(2-(1-(4-cyanobenzyl)piperidin-4-ylcarbamoyl)benzofuran-5-yl)-1-(4-fluorophenyl)-1H-pyrazole-4-carboxamide]: the negative-log EC50 (pEC50) is 6.00 to 7.00.
Compound `N#Cc1ccc(CN2CCC(NC(=O)c3cc4cc(NC(=O)C5CCN(Cc6cnn(-c7ccc(C#N)cc7)c6)CC5)ccc4o3)CC2)cc1` [Compound 6-42, N-(2-(1-(4-cyanobenzyl)piperidin-4-ylcarbamoyl)benzofuran-5-yl)-1-((1-(4-cyanophenyl)-1H-pyrazol-4-yl)methyl)piperidine-4-carboxamide] gave a negative-log EC50 (pEC50) of 5.00 to 6.00.

The same assay, now with this note: Table 14, compounds of Table 7.
Take `COc1ccc(C(=O)C2CCCN(C(=O)c3ccc(C(=O)NC4CCN(Cc5ccc(F)cc5)CC4)cn3)C2)cc1` (stereo not drawn) [Compound 7-9, N-(1-(4-fluorobenzyl)piperidin-4-yl)-6-(3-(4-methoxybenzoyl)piperidine-1-carbonyl)nicotinamide]: the negative logarithm of the EC50 (pEC50) was 5.00 to 6.00.
Turning to `N#Cc1ccc(CN2CCC(NC(=O)c3ccc(C(=O)N4CCC(C(=O)c5ccc(N6CCCC6)cc5)CC4)nc3)CC2)cc1F` [Compound 7-117, N-(1-(4-cyano-3-fluorobenzyl)piperidin-4-yl)-6-(4-(4-(pyrrolidin-1-yl)benzoyl)piperidine-1-carbonyl)nicotinamide], the negative logarithm of the EC50 (pEC50) is more than 6.00.
With `COc1ccc(C(=O)C2CCN(C(=O)c3ccc(C(=O)NC4CCN(Cc5ccc(C)c(C#N)c5)C[C@H]4F)cn3)CC2)cc1` (stereo partly drawn) [Compound 7-58, N-((3,4-trans)-1-(3-cyano-4-methylbenzyl)-3-fluoropiperidin-4-yl)-6-(4-(4-methoxybenzoyl)piperidine-1-carbonyl)nicotinamide], the pEC50 is more than 6.00.
